Measured values published in ChEMBL document CHEMBL1144380, “Furanyl-1,3-thiazol-2-yl and benzoxazol-5-yl acetic acid derivatives: novel classes of heparanase inhibitor” (Bioorg Med Chem Lett, 2005).
pIC50: −log10 of the molar value.

Columns and labels:
[1] = In vitro anti-angiogenic activity in Human endothelial cells; assay type: functional, cell-based; settings: endothelial cell
Heparanase = target: T1, Heparanase (Homo sapiens, UniProt Q9Y251); test: In vitro inhibitory concentration against human Heparanase
T1 sequence (Q9Y251 whole entry): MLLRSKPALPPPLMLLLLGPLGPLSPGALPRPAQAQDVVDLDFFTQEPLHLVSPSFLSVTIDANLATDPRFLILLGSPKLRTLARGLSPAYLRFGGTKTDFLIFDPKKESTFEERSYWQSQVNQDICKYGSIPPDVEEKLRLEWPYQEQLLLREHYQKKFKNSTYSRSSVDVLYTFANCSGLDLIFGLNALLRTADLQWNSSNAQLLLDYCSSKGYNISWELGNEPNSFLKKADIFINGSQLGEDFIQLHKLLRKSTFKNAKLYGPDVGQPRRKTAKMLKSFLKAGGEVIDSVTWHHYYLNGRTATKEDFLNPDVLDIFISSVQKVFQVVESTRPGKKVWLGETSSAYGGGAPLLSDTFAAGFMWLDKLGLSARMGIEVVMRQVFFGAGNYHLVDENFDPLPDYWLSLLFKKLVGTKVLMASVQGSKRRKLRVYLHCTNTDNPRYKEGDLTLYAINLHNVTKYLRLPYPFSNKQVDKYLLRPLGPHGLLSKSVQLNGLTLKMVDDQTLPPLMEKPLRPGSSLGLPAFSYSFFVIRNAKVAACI

Cytochrome P450 2C9 = Cytochrome P450 2C9 (Homo sapiens, UniProt P11712); test: In vitro inhibitory concentration against Cytochrome P450 2C9; assay type: ADME
Cytochrome P450 2C9, sequence (P11712 whole entry): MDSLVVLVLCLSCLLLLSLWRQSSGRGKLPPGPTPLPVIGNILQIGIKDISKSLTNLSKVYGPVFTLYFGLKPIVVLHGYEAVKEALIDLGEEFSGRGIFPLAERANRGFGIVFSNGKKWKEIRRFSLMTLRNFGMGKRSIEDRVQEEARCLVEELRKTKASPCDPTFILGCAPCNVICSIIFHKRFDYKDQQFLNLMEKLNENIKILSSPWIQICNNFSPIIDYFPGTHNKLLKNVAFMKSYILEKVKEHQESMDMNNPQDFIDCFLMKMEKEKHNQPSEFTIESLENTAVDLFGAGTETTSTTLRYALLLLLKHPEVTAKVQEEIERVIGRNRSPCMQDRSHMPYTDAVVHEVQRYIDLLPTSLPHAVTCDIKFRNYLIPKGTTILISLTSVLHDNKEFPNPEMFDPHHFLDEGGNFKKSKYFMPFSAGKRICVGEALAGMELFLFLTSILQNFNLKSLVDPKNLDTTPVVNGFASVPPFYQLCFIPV

Row | SMILES | pIC50 [1] | further results
1 | COc1ccc(/C=C/C(=O)Nc2ccc(-c3ccc(-c4csc(CC(=O)O)n4)o3)c(Cl)c2)cc1 | 5.30 | –
2 | O=C(O)Cc1nc(-c2ccc(-c3ccc(NC(=O)/C=C/c4ccc(Cl)cc4Cl)cc3Cl)o2)cs1 | < 4.70 | –
3 | O=C(O)Cc1ccc2oc(-c3ccc(NC(=O)/C=C/c4cccc(Br)c4)c(F)c3)nc2c1 | 6.00 | –
4 | O=C(O)Cc1nc(-c2ccc(-c3ccc(NC(=O)c4ccc(Cl)cc4Cl)cc3Cl)o2)cs1 | 6.30 | –
5 | O=C(O)Cc1nc(-c2ccc(-c3ccc(NC(=O)/C=C/c4ccccc4)cc3Cl)o2)cs1 | 4.82 | –
6 | O=C(O)Cc1ccc2oc(-c3ccc(NC(=O)c4ccc(Br)cc4)cc3Cl)nc2c1 | – | pIC50 (Heparanase): < 5.00
7 | O=C(O)Cc1ccc2oc(-c3ccc(NC(=O)/C=C/c4cccc(Br)c4)cc3)nc2c1 | < 4.70 | –
8 | O=C(O)Cc1ccc2oc(-c3ccc(NC(=O)/C=C/c4ccc(Cl)cc4Cl)cc3Cl)nc2c1 | 5.30 | –
9 | O=C(O)Cc1nc(-c2ccc(-c3ccc(NC(=O)c4ccc(OC(F)(F)F)cc4)cc3Cl)o2)cs1 | 6.30 | –
10 | O=C(O)Cc1ccc2oc(-c3ccc(NC(=O)/C=C/c4ccc(Br)cc4)cc3Cl)nc2c1 | 5.12 | –
11 | O=C(O)Cc1nc(-c2ccc(-c3ccc(NC(=O)c4ccc(Cl)cc4)cc3Cl)o2)cs1 | 5.70 | –
12 | O=C(O)Cc1ccc2oc(-c3ccc(NC(=O)/C=C/c4ccc(F)c(Cl)c4)c(F)c3)nc2c1 | 6.00 | –
13 | O=C(O)Cc1ccc2oc(-c3ccc(NC(=O)/C=C/c4cccc(Br)c4)cc3Cl)nc2c1 | 4.70 | –
14 | N#Cc1cccc(C(=O)Nc2ccc(-c3ccc(-c4csc(CC(=O)O)n4)o3)c(Cl)c2)c1 | < 4.70 | –
15 | O=C(O)Cc1ccc2oc(-c3ccc(NC(=O)/C=C/c4ccc(Cl)cc4Cl)c(F)c3)nc2c1 | < 4.70 | –
16 | O=C(O)Cc1ccc2oc(-c3ccc(NC(=O)/C=C/c4ccccc4)cc3Cl)nc2c1 | – | pIC50 (Heparanase): < 4.52
17 | O=C(O)Cc1ccc2oc(-c3ccc(NC(=O)/C=C/c4cccc(Cl)c4)c(F)c3)nc2c1 | 5.12 | –
18 | COc1ccc(NC(=O)/C=C/c2ccc(-c3nc4cc(CC(=O)O)ccc4o3)cc2)cc1OC | – | pIC50 (Heparanase): < 5.00
19 | O=C(O)Cc1nc(-c2ccc(-c3ccc(NC(=O)/C=C/c4ccc(OC(F)(F)F)cc4)cc3Cl)o2)cs1 | 4.70 | –
20 | O=C(O)Cc1nc(-c2ccc(-c3ccc(NC(=O)/C=C/c4ccc(Br)cc4)cc3Cl)o2)cs1 | 6.00 | –
21 | O=C(O)Cc1ccc2oc(-c3ccc(NC(=O)/C=C/c4ccc(Cl)c(Cl)c4)c(F)c3)nc2c1 | 6.70 | –
22 | O=C(O)Cc1ccc2oc(-c3ccc(NC(=O)/C=C/c4cccc(Cl)c4F)c(F)c3)nc2c1 | 5.30 | –
23 | O=C(O)Cc1nc(-c2ccc(-c3ccc(NC(=O)c4ccccc4)cc3Cl)o2)cs1 | – | pIC50 (Heparanase): < 4.52
24 | COc1ccccc1NC(=O)/C=C/c1ccc(-c2nc3cc(CC(=O)O)ccc3o2)cc1 | – | pIC50 (Heparanase): < 5.00
25 | O=C(O)Cc1ccc2oc(-c3ccc(NC(=O)/C=C/c4ccc(Br)cc4)cc3)nc2c1 | 4.70 | –
26 | O=C(O)Cc1ccc2oc(-c3ccc(NC(=O)/C=C/c4ccc(Br)cc4)c(F)c3)nc2c1 | 6.00 | pIC50 (Cytochrome P450 2C9): < 4.52
27 | N#Cc1ccc(/C=C/C(=O)Nc2ccc(-c3nc4cc(CC(=O)O)ccc4o3)cc2F)cc1 | 6.00 | –
28 | O=C(O)Cc1nc(-c2ccc(-c3ccc(NC(=O)c4ccc(C(F)(F)F)cc4)cc3Cl)o2)cs1 | 5.12 | –
